The test system of one series is P388. The experiment in a line: Cytotoxicity against mouse P388 cells. The series is classed as functional. The note with it: for EC50: read-out: ED50 (the source's name).
In a further series the test system is BXPC-3. The experiment in a line: Cytotoxicity against human BxPC3 cells. The series is classed as functional.
For the next series, the system named is MCF7. The experiment in a line: Cytotoxicity against human MCF7 cells. The series is classed as functional.
For a further series, the system named is SF-268. As to the kind of experiment: Cytotoxicity against human SF268 cells. The series is classed as functional.
In a further series the test system is NCI-H460. As to the kind of experiment: Cytotoxicity against human NCI-H460 cells. It counts as functional.
Another series relates to KM-20L2. As to the kind of experiment: Cytotoxicity against human KM20L2 cells. The series is classed as functional.
A further series deals with DU-145. As to the kind of experiment: Cytotoxicity against human DU145 cells. It counts as functional.
A short description of another series: physchem. To be noted: aqueous (not further specified).
The conditions of series [1]: buffer.
Description: Aqueous solubility of the compound

From ChEMBL document CHEMBL1158889, “Antineoplastic agents 500. Narcistatin” (J Nat Prod, 2003) come the findings set out here.

Values after ≈ are worked out from the molar mass of the structure shown. Where only a bound is given, the exact number is not on record here.

Description for physchem: Aqueous solubility of the compound

Turning to `O=C1N[C@@H]2C(=C[C@H](O)[C@H]3OP(=O)([O-])O[C@H]32)c2cc3c(c([O-])c21)OCO3.[Ca+2]` [CALCIUM NARCISTATIN], the EC50 with P388 worked out at 0.0223 µg/mL. Further, the GI50 (usually the concentration at which growth is held to half of that of the control) in the series with BXPC-3 is 0.045 µg/mL; in the series on MCF7, 0.059 µg/mL; in the series with SF-268, 0.031 µg/mL; in the series with NCI-H460 it was 0.12 µg/mL; with KM-20L2, 0.059 µg/mL; in the series with DU-145 it was 0.0093 µg/mL. Besides, the solubility – broadly, how much of the substance goes into solution per volume – in the series “physchem” is less than 1000 µg/mL.
`O=C1N[C@@H]2C(=C[C@H](O)[C@H]3OP(=O)([O-])O[C@H]32)c2cc3c(c(O)c21)OCO3.[Cs+]` [CESIUM NARCISTATIN]: the EC50 in the series on P388 turned out to be 0.183 µg/mL. Also, the 50% growth inhibitory concentration (GI50) in the series with BXPC-3 is 0.41 µg/mL; with MCF7, 0.62 µg/mL; in the series on SF-268, 0.33 µg/mL; in the series on NCI-H460, greater than 1 µg/mL; with KM-20L2 it was 0.66 µg/mL; in the series on DU-145, 0.13 µg/mL. Moreover, the solubility in the series “physchem” is less than 13000 µg/mL.
As for `O=C1N[C@@H]2C(=C[C@H](O)[C@H]3OP(=O)(O)O[C@H]32)c2cc3c(c(O)c21)OCO3.c1c[nH]cn1` [IMIDAZOLIUM NARCISTATIN], in the series with P388, the EC50 turned out to be 0.24 µg/mL. Also, the GI50 in the series on BXPC-3 was 0.45 µg/mL; in the series on MCF7, 0.9 µg/mL; in the series on SF-268, 0.38 µg/mL; in the series on NCI-H460, greater than 1 µg/mL; in the series on KM-20L2, greater than 1 µg/mL; with DU-145, 0.44 µg/mL. This compound registered a solubility in “physchem” of 5800 µg/mL.
With `O=C1N[C@@H]2C(=C[C@H](O)[C@H]3OP(=O)([O-])O[C@H]32)c2cc3c(c(O)c21)OCO3.[Li+]` [LITHIUM NARCISTATIN], the EC50 with P388 turned out to be 0.121 µg/mL. Besides, the GI50 was 0.25 µg/mL in the series with BXPC-3; 0.31 µg/mL in the series on MCF7; 0.17 µg/mL in the series on SF-268; 0.3 µg/mL with NCI-H460; 0.26 µg/mL in the series with KM-20L2; 0.13 µg/mL with DU-145. This compound showed a solubility in the series “physchem” greater than 50000 µg/mL.
Regarding `O=C1N[C@@H]2C(=C[C@H](O)[C@H]3OP(=O)([O-])O[C@H]32)c2cc3c(c([O-])c21)OCO3.[Mg+2]` [MAGNESIUM NARCISTATIN], the EC50 in the series with P388 was 0.17 µg/mL. For the same compound, the GI50 in the series with BXPC-3 stood at 0.19 µg/mL; with MCF7, 0.25 µg/mL; with SF-268, 0.14 µg/mL; in the series on NCI-H460, 0.29 µg/mL; with KM-20L2, 0.31 µg/mL; in the series on DU-145, 0.1 µg/mL. The solubility in the series “physchem” was less than 1500 µg/mL.
As for `C1COCCN1.O=C1N[C@@H]2C(=C[C@H](O)[C@H]3OP(=O)(O)O[C@H]32)c2cc3c(c(O)c21)OCO3` [MORPHOLINIUM NARCISTATIN], the EC50 in the series on P388 is 0.232 µg/mL. In addition, the GI50 with BXPC-3 is 0.25 µg/mL; in the series on MCF7, 0.48 µg/mL; with SF-268, 0.24 µg/mL; in the series on NCI-H460, greater than 1 µg/mL; in the series with KM-20L2, 0.54 µg/mL; with DU-145, 0.14 µg/mL. The compound further had a solubility in “physchem” greater than 13000 µg/mL.
As for `O=C1N[C@@H]2C(=C[C@H](O)[C@H]3OP(=O)(O)O[C@H]32)c2cc3c(c(O)c21)OCO3` [NARCISTATIN], the EC50 with P388 was 0.275 µg/mL (≈ 0.745 µM). Moreover, the 50% growth inhibitory concentration (GI50) with BXPC-3 was 0.33 µg/mL (≈ 0.894 µM); in the series on MCF7 it was 0.35 µg/mL (≈ 0.948 µM); in the series on SF-268, 0.22 µg/mL (≈ 0.596 µM); with NCI-H460, 0.47 µg/mL (≈ 1.27 µM); in the series with KM-20L2 it was 0.53 µg/mL (≈ 1.44 µM); in the series on DU-145 it was 0.16 µg/mL (≈ 0.433 µM). For the same compound, the solubility in the series “physchem” was found to be 4000 µg/mL (≈ 10800 µM).
Regarding `C1CNCCN1.O=C1N[C@@H]2C(=C[C@H](O)[C@H]3OP(=O)(O)O[C@H]32)c2cc3c(c(O)c21)OCO3` [PIPERAZINIUM NARCISTATIN], the EC50 in the series with P388 was found to be 0.0378 µg/mL. Besides, the GI50 was 0.1 µg/mL with BXPC-3; 0.17 µg/mL with MCF7; 0.099 µg/mL in the series with SF-268; 0.24 µg/mL in the series with NCI-H460; 0.22 µg/mL with KM-20L2; 0.032 µg/mL in the series on DU-145. In “physchem”, this compound showed a solubility of 1900 µg/mL.
`O=C1N[C@@H]2C(=C[C@H](O)[C@H]3OP(=O)([O-])O[C@H]32)c2cc3c(c(O)c21)OCO3.[K+]` [POTASSIUM NARCISTATIN]: in the series with P388, the EC50 is 0.242 µg/mL. The concentration for 50% growth inhibition (GI50) was found to be 0.36 µg/mL in the series on BXPC-3; 0.4 µg/mL with MCF7; 0.19 µg/mL in the series with SF-268; 0.67 µg/mL in the series with NCI-H460; 0.56 µg/mL with KM-20L2; 0.26 µg/mL with DU-145. Further, in “physchem”, the solubility turned out to be 11000 µg/mL.
For `O=C1N[C@@H]2C(=C[C@H](O)[C@H]3OP(=O)(O)O[C@H]32)c2cc3c(c(O)c21)OCO3.c1ccncc1` [PYRIDINIUM NARCISTATIN], in the series with P388, the EC50 was 0.191 µg/mL. In addition, the GI50 was 0.22 µg/mL in the series with BXPC-3; 0.27 µg/mL with MCF7; 0.15 µg/mL with SF-268; 0.27 µg/mL with NCI-H460; 0.34 µg/mL in the series on KM-20L2; 0.17 µg/mL with DU-145.
In the case of `C=C[C@@H]1CN2CC[C@@H]1C[C@H]2[C@@H](O)c1ccnc2ccc(OC)cc12.O=C1N[C@@H]2C(=C[C@H](O)[C@H]3OP(=O)(O)O[C@H]32)c2cc3c(c(O)c21)OCO3` [QUINIDINIUM NARCISTATIN], the EC50 in the series with P388 amounted to 0.271 µg/mL. Besides, the concentration for 50% growth inhibition (GI50) in the series on BXPC-3 turned out to be 0.31 µg/mL; in the series on MCF7 it was 0.5 µg/mL; in the series on SF-268, 0.25 µg/mL; in the series with NCI-H460, 0.77 µg/mL; in the series with KM-20L2, 0.58 µg/mL; in the series on DU-145, 0.22 µg/mL.
With `C=C[C@@H]1CN2CC[C@@H]1C[C@@H]2[C@H](O)c1ccnc2ccc(OC)cc12.O=C1N[C@@H]2C(=C[C@H](O)[C@H]3OP(=O)(O)O[C@H]32)c2cc3c(c(O)c21)OCO3` [QUININIUM NARCISTATIN], the EC50 in the series with P388 came to 0.0342 µg/mL. Further, the GI50 is 0.051 µg/mL with BXPC-3; 0.12 µg/mL in the series with MCF7; 0.045 µg/mL with SF-268; 0.17 µg/mL in the series with NCI-H460; 0.12 µg/mL in the series with KM-20L2; 0.013 µg/mL in the series on DU-145.
`O=C1N[C@@H]2C(=C[C@H](O)[C@H]3OP(=O)([O-])O[C@H]32)c2cc3c(c(O)c21)OCO3.[Na+]` [SODIUM NARCISTATIN]: in the series with P388, the EC50 was 0.255 µg/mL. The GI50 with BXPC-3 was 0.32 µg/mL; in the series with MCF7, 0.56 µg/mL; in the series on SF-268 it was 0.23 µg/mL; with NCI-H460, greater than 1 µg/mL; in the series on KM-20L2, 0.45 µg/mL; in the series on DU-145, 0.12 µg/mL. The compound also gave a solubility in the series “physchem” of 60000 µg/mL.
`O=C1N[C@@H]2C(=C[C@H](O)[C@H]3OP(=O)([O-])O[C@H]32)c2cc3c(c(O)c21)OCO3.O=C1N[C@@H]2C(=C[C@H](O)[C@H]3OP(=O)([O-])O[C@H]32)c2cc3c(c(O)c21)OCO3.[Zn+2]` [ZINC NARCISTATIN]: the EC50 in the series with P388 turned out to be 0.0287 µg/mL. Besides, the GI50 was found to be 0.069 µg/mL with BXPC-3; 0.14 µg/mL with MCF7; 0.053 µg/mL in the series on SF-268; 0.21 µg/mL in the series on NCI-H460; 0.16 µg/mL with KM-20L2; 0.016 µg/mL in the series on DU-145. This compound returned a solubility in the series “physchem” of 1700 µg/mL.
As to “MANGANESE NARCISTATIN [listing 1 of 2 here]”, the solubility in [1] is less than 3000 µg/mL.
For “MANGANESE NARCISTATIN [listing 2 of 2 here]”, in the series on P388, the ED50 is 4.27 ×10⁻² µg/ml. For the same compound, the GI50 in the series with BXPC-3 was 0.049 µg/mL; in the series on MCF7, 0.07 µg/mL; in the series with SF-268, 0.04 µg/mL; in the series on NCI-H460, 0.15 µg/mL; in the series on KM-20L2, 0.13 µg/mL; with DU-145, 0.034 µg/mL.
